One may read the MIC50 as an inhibitory concentration at the 50% level, which refers to growth in some studies and to a panel of isolates in others. As usually defined, the MIC90 is an inhibitory concentration at the 90% level, which refers to growth in some studies and to a panel of isolates in others. Low readings indicate greater potency, high ones weaker potency.

This note sets out measurements from patent US20240252586A1, “ENGINEERED ANTIMICROBIAL PEPTIDES AND USAGE THEREOF” (priority 2021, published 2024).

Values joined by “and” are separate entries in the source; they are usually repeats but may differ in a detail not shown here. Equal values may be shown once. Where no end group is shown, it is not given here.

Series [1] relates to A. baumannii. The experiment in a line: Broth microdilution MIC, PJI isolates (Example 1). The settings on record: RPMI; N = 24. Format: cell-based, Acinetobacter baumannii. The procedure: (§1) Imipenem, levofloxacin, tigecycline, linezolid, vancomycin, oxacillin, ceftazidime, colistin, and amikacin were tested as comparators. Testing was conducted in accordance with guidelines from the Clinical and Laboratory Standards Institute (CLSI; M7 and M100). Test organisms comprised reference strains from the American Type Culture Collection, the Centers for Disease Control Antibiotic Reference Bank and clinical isolates from the Micromyx repository.
For orientation: Broth dilution looks for growth in wells or tubes with falling amounts of substance.

Series [2] relates to Staphylococcus aureus SH1000. The note with it: both concentrations (1 and 5 mg/mL).
Experimental: A bone tunnel in the tibial canal was created using a drill with a 1.2 mm or 1.6 mm tungsten carbide drill bit. The bone tunnel was then dried and treated to stimulate acute human PJI following primary arthroplasty. A Kirschner wire implant of 2 cm long with a 0.3 cm long top hook was placed in the bone tunnel and the wound was closed. Prior to closure of the superficial skin layer, 0.1 mL of 2×10^6 planktonic Staphylococcus aureus SH1000 (CFU/rabbit) in saline was injected into the joint space. A closure was performed, and a biofilm was allowed to become established over a period of 2 days.
At 2 days post infection, irrigation and debridement (I&D) was performed on the infected joint. […] Additionally, an intravenous administration of an antibiotic was administered. Bacterial burden was determined by colony forming unit (CFU) analysis.
Animals were observed up to 28 days. […] When an animal was sick or needed to be euthanized, the implant and a part of the tibia was collected post mortem and bacterial burden was determined by CFU analysis.
The following parameters and endpoints were evaluated in this study: X-ray for proper implant placement, bacterial burden by colony forming unit analysis (CFU), general clinical signs, detailed clinical signs, body weights, body weight changes, temperature, mortality, blood culture, erythrocyte sedimentation rate (ESR), and C-reactive protein levels (CRP). […]
For series [3], the system named is CoNS non-epidermidis. The experiment in a line: Broth microdilution MIC, PJI isolates (Example 1). Format: cell-based, coagulase-negative staphylococci. The settings on record: RPMI; N = 53. The procedure:
as §1

Series [4] concerns Escherichia coli ATCC 25922. Put plainly: Broth microdilution MIC, QC of stock (Study 2). Format: cell-based. The procedure: (§2) The activity of SEQ ID NO: 1 stocks against relevant ATCC reference isolates was determined by broth microdilution for QC purposes in accordance with guidelines described by the Clinical and Laboratory Standards Institute.
(§3) The wells in columns 2-12 in a standard 96-well microdilution plate were filled with 150 μL of 0.002% P-80 PBS. […] Serial two-fold dilutions were conducted through column 11. The wells of column 12 contained no drug and served as the organism growth control well. This would become the “mother” plate from which “daughter” or test plates would be prepared. The daughter plates were loaded with 190 μL of CAMHB+0.002% polysorbate-80 (P-80), or RPMI with 0.002% P-80 by hand-pipetting.
(§4) A standardized inoculum of each evaluated organism was prepared per CLSI methods. Growth from agar plates was used to prepare a 0.5 McFarland suspension in saline for each organism. The 0.5 McFarland suspensions were diluted 1:20 in saline, and the diluted suspensions were used as the test inocula. The inocula were then transferred to daughter plates by delivering 10 μL of standardized inoculum into each well of the daughter plate, resulting in a final concentration ranging between 2.5×10^5 to 5×10^5 CFU/mL per well.
(§5) Plates were stacked and covered with a lid on the top plate, placed into plastic bags, and incubated at 35° C. for 16-20 hr in ambient air. Growth in the microplates was viewed from the bottom using a plate viewer. […] The MIC was read and recorded as the lowest concentration of drug (SEQ ID NO: 1) that inhibited visible growth of the organism.

For series [5], the system named is Staphylococcus aureus ATCC 29213. The experiment in a line: Broth microdilution MIC, QC of stock (Study 2). It is filed as cell-based. On the procedure:
as §2, §3, §4, §5

Series [6] has as its system Pseudomonas aeruginosa ATCC 27853. The experiment in a line: Broth microdilution MIC, QC of stock (Study 2). Format: cell-based. On the procedure:
as §2, §3, §4, §5

Series [7] has as its system S. epidermidis. Put plainly: Broth microdilution MIC, PJI isolates (Example 1). Format: cell-based, Staphylococcus epidermidis. The settings on record: RPMI. On the procedure:
as §1

For series [8], the system named is P. aeruginosa CDC 0515 biofilm. The experiment in a line: Microtiter plate biofilm studies (previous), resazurin viability. The source says: In those previous studies, mature biofilms were formed on polystyrene microtiter plates through growth in CAMHB, followed by exposure to SEQ ID NO: 1 and resazurin addition to measure cell viability.
Background: The colour change of resazurin is a common sign of viable cells or microbes.

The subject of series [9] is S. aureus. The experiment in a line: Broth microdilution MIC, PJI isolates (Example 1). It is filed as cell-based, Staphylococcus aureus. The settings on record: RPMI; N = 3. The procedure: as §1
Series [10] concerns Enterobacterales. The experiment in a line: Broth microdilution MIC, PJI isolates (Example 1). Format: cell-based. The settings on record: RPMI; N = 22. On the procedure:
as §1

With RRWVRRVRRVWRRVVRVVRRWVRR [SEQ ID NO: 1], the MIC50 in series [1] came to 0.25 µg/mL; in series [3] it was 0.06 µg/mL; in series [7] (All S. epidermidis (N = 104)) it was 0.12 µg/mL; in series [7] (MRSE (N = 58)) it was 0.12 µg/mL; in series [7] (MSSE (N = 46)), 0.12 µg/mL; in series [9], 0.12 µg/mL. In addition, in series [10], the MIC50 was determined as 0.5 µg/mL. In addition, the MIC90 in series [1] was 0.25 µg/mL; in [3], 0.06 µg/mL; in [7] (All S. epidermidis (N = 104)) it was 0.12 µg/mL; in series [7] (MRSE (N = 58)), 0.12 µg/mL; in series [7] (MSSE (N = 46)) it was 0.12 µg/mL; in [9] it was 0.12 µg/mL. For the same sequence, the MIC90 in series [10] was determined as 0.5 µg/mL. Further, the “body weight vs control group” value in series [2] is listed as “no statistically significant bodyweight differences”. Besides, the MIC in [4] (CAMHB + 0.002% P-80) stood at 2 µg/mL; in [4] (RPMI + 0.002% P-80), 0.5 µg/mL; in series [5] (CAMHB + 0.002% P-80), 4 µg/mL; in series [5] (RPMI + 0.002% P-80), 0.12 µg/mL; in series [6] (CAMHB + 0.002% P-80), 4 µg/mL; in series [6] (RPMI + 0.002% P-80), 0.5 µg/mL. For the same sequence, the MIC in [8] (two previous microtiter plate biofilm studies) was 8 µg/mL and 16 µg/mL. The “decrease in cell viability (resazurin reduction)” value in [8] (500 μg/mL, 15 minutes) is recorded as “ca. 70%”.
